pKi: −log10 of the molar value.
How the values were obtained:
[1] = Ratio of free drug level from brain to plasma concentration in rat at 0.05 mg/kg, iv after 5 mins; assay type: ADME, organism-based; design: dose 0.05 mg/kg, route intravenous; details: read-out: BPR
[2] = Ratio of free drug level from brain to plasma concentration in rat at 0.05 mg/kg, iv after 3 mins; assay type: ADME, organism-based; design: dose 0.05 mg/kg, route intravenous; details: read-out: BPR
[3] = Plasma concentration in rat at 0.05 mg/kg, iv after 5 mins; assay type: ADME, organism-based; design: dose 0.05 mg/kg, route intravenous
[4] = Plasma concentration in rat at 0.05 mg/kg, iv after 3 mins; assay type: ADME, organism-based; design: dose 0.05 mg/kg, route intravenous
Nucleic Acid [5] = test: Ratio of drug level from striatum to cerebellum in rat brain at 0.05 mg/kg, iv after 5 mins; assay type: ADME, organism-based; design: dose 0.05 mg/kg, route intravenous; details: in vivo
Nucleic Acid [6] = test: Ratio of drug level from hippocampus to cerebellum in rat at 0.05 mg/kg, iv after 5 mins; assay type: ADME, organism-based; design: dose 0.05 mg/kg, route intravenous; details: in vivo
Nucleic Acid [7] = test: Ratio of drug level from cortex to cerebellum in rat at 0.05 mg/kg, iv after 40 mins; assay type: ADME, organism-based; design: dose 0.05 mg/kg, route intravenous; details: in vivo
Nucleic Acid [8] = test: Ratio of drug level from hippocampus to cerebellum in rat at 0.05 mg/kg, iv after 40 mins; assay type: ADME, organism-based; design: dose 0.05 mg/kg, route intravenous; details: in vivo
Nucleic Acid [9] = test: Ratio of drug level from cortex to cerebellum in rat at 0.05 mg/kg, iv after 5 mins; assay type: ADME, organism-based; design: dose 0.05 mg/kg, route intravenous; details: in vivo
Nucleic Acid [10] = test: Ratio of drug level from striatum to cerebellum in rat brain at 0.05 mg/kg, iv after 40 mins; assay type: ADME, organism-based; design: dose 0.05 mg/kg, route intravenous; details: in vivo
[11] = biological target: 5-hydroxytryptamine receptor 2A (Homo sapiens, UniProt P28223); test: Displacement of [125I]-R-O-DOI from human 5-HT2A receptor expressed in CHO-K1 cells by liquid scintillation spectrometry; assay type: cell-based
Chain of 5-hydroxytryptamine receptor 2A (P28223 whole entry): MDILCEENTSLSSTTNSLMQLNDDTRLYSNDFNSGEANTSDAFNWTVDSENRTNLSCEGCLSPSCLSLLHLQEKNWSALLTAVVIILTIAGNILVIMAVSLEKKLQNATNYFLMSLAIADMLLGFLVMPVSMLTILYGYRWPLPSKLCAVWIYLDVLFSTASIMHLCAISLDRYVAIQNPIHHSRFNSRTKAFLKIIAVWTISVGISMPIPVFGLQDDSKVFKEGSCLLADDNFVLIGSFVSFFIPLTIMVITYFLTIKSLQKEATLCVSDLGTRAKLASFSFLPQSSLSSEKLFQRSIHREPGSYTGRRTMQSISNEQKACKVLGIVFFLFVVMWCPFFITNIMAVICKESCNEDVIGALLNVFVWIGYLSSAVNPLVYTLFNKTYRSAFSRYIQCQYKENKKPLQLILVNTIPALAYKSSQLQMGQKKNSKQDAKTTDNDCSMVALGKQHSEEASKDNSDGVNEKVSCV

Structure (SMILES): CN1CCC(c2cccc3cc(S(=O)(=O)c4ccccn4)cnc23)CC1
- Kp uu at 5 min [1]: 0.28
- Kp uu at 0.05 h [2]: 0.21
- concentration at 5 min [3]: 83.5 ng/mL
- concentration at 0.05 h [4]: 104 ng/mL

Structure (SMILES): [3H]C([3H])([3H])N1CCC(c2cccc3cc(S(=O)(=O)c4ccccn4)cnc23)CC1
- Ratio (Nucleic Acid [5]): 0.81
- Ratio (Nucleic Acid [6]): 1.06
- Ratio (Nucleic Acid [7]): 1.2
- Ratio (Nucleic Acid [8]): 1.07
- Ratio (Nucleic Acid [9]): 0.9
- Ratio (Nucleic Acid [10]): 1.31

Structure (SMILES): CN1CCN(c2cccc3cc(S(=O)(=O)c4cccc(F)c4)cnc23)CC1
- pKi [11]: 9.41

— ChEMBL document CHEMBL3259709, “Quinoline Derivatives as 5-HT6 Receptor PET Ligands” (ACS Med Chem Lett, 2014)
